In patent publication US8133902B2, “Ammosamides as anticancer agents” (The Regents of the University of California, priority 2007, dated 2012):
Where two headings read alike, the source gives them in different places.

How the values were obtained:
Assay type in all cases: cell-based
HCT-116 cells = assay: cell cycle effects by FACS analysis; settings: FIG. 3a-c, 50 μM
Procedure: The results of the study of the activity are discussed below with the reference to FIG. 3. […] Further, FIG. 3a illustrates cell cycle response for unsyncronized HCT-116 cells, FIG. 3b for HCT-116 cells synchronized and treated at G0 and incubated for 12 hours, and FIG. 3c, for HCT-116 cells synchronized and treated at S and incubated for 12 hours.
The effects of probe 4 on cell cycle were evaluated using FACS analysis.

[1] = system: HeLa, HCT-116 and PC-3 cells; assay: live cell fluorescence microscopy, retention and localization; settings: pretreatment with 1 mL DMEM containing 10 μM
Procedure: HeLa cells (ATCC CCL-2) were cultured in phenol red-free Dulbecco's modification of Eagle's medium (DMEM) with 4.5 g/L glucose, […] and 5% heat inactivated fetal calf serum (FCS) in glass-bottom dishes. The cells were synchronized using a double thymidine block. Phenol red, a common additive in DMEM, was not used during the culturing or experimentation. Fluorescent images were collected on a Nikon TE 2000 using irradiation with a mercury vapor lamp (Nikon), filtration through a dichroic filter set (FF409, Semrock) with an excitation at 377±50 nm, dichroic with >98% reflection at 344-404 nm and >98% transmission at 415-570 nm, and emission filter at 447±60 nm, focusing with an Oil Immersion Epiplan 60× objective (Zeiss), and image collection with an SPOT RT-KE color CCD Camera (Diagnostic Instruments Inc.).
The results of the study of the activity are discussed below with the reference to FIG. 2. […]
Live cell fluorescence microscopy was then conducted to detail the intracellular localization of probe 4. […]
After 12 hours of incubation, the blue fluorescence from probe 4 was vesiculated (FIG. 2d). […] In particular, the overlap of red fluorescence from the red lysosome stain, LysoTracker Red DND-99, and the blue fluorescence from probe 4 provided strong evidence in support of this observation (FIG. 2f).

HCT-116 colon carcinoma = assay: in vitro cytotoxicity against HCT-116 colon carcinoma; settings: Homo sapiens
Description: Compounds IA and IB are isolated in a pure form from a marine-derived actinomycete strain CNR698. More specifically, compound IA is obtained from the marine-derived actinomycete strain CNR698, and is the first natural product to contain a […] functionality. Compound IB is obtained from the marine-derived actinomycete strain CNR698. The actinomycete was obtained from a marine sediment. Briefly, the actinomycete, identified as a Streptomyces strain (CNR-698) was isolated from bottom sediments collected at a depth of 300 meters in the Bahamas Islands. […] Subsequent cytotoxicity-guided (HCT-116) fractionation by C18 flash chromatography and RP-HPLC led to the isolation of ammosamides A (compound IA) and B (compound IB) as dark blue and blue-purple, respectively (3 and 4 mg/L)
Accordingly, in some embodiments of the invention, compounds IA and IB are used for making pharmaceutical compositions comprising either or both of the two compounds and a pharmaceutically acceptable carrier. In addition, the pharmaceutical compositions can optionally comprise one or more additional anticancer agent(s).
Activity of probe 4 (FIG. 1) was compared to that of ammosamide A (1 on FIG. 1). […] Florescence microscopy was then used to examine the uptake of probe 4, which was concentrated within HeLa, HCT-116 and PC-3 cells within minutes (FIG. 2). The entire fluorescence from addition of 1 mL of 1 μM in […] appeared within the cell.

[2] = HCT-116, read-out: cytotoxicity IC50 values
[3] = HCT-116, read-out: in vitro cytotoxicity IC50

| SMILES | cell cycle data relative to probe 4 (HCT-116 cells) | effect of pretreatment on uptake of probe 4 [1] | IC50 (HCT-116 colon carcinoma; [2]) [nM] | IC50 (HCT-116 colon carcinoma; [3]) [nM] |
| --- | --- | --- | --- | --- |
| CN1C(=S)c2cc(C(N)=O)nc3c(N)c(Cl)c(N)c1c23 [Compound IA, ammosamide A] | Comparable cell cycles data | blocked the uptake of probe 4 | < 1000 | 320 |
| CN1C(=O)c2cc(C(N)=O)nc3c(N)c(Cl)c(N)c1c23 [Compound IB, ammosamide B] |  |  | < 1000 | 320 |
